Measured values as given in ChEMBL document CHEMBL4354854, “DNA-Encoded Library Technology-Based Discovery, Lead Optimization, and Prodrug Strategy toward Structurally Unique Indoleamine 2,3-Dioxygenase-1 (IDO1) Inhibitors” (J Med Chem, 2020).
pIC50: −log10 of the molar value. Values after ≈ are worked out from the molar mass of the structure shown. Active and inactive are the calls of the source. The calls are words filed in the database; no cut-off is given here.

Tests used:
[1] = Cytotoxicity against human PBMC cells assessed as reduction in cell viability measured after 48 hrs by Celltiter-glo luminescence assay; type: cell-based
[2] = biological target: T1, Indoleamine 2,3-dioxygenase 1 (Homo sapiens, UniProt P14902)
Target sequence in this assay (P14902 whole entry): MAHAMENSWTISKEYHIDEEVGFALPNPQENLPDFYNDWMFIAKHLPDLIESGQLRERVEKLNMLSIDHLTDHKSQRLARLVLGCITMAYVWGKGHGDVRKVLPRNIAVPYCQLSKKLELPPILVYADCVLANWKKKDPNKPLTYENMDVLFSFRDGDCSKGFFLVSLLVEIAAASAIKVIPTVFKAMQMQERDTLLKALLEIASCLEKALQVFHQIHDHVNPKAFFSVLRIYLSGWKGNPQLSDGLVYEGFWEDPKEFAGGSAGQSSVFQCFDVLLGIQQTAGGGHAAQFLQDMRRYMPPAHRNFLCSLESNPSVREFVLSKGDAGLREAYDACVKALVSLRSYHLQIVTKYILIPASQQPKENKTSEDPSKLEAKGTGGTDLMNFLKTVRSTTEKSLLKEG
Description: Inhibition of IDO1 in IFN-gamma/LPS stimulated human PBMC assessed as reduction in kynurenine production after 48 hrs by RapidFire MS assay

[3] = Solubility of the compound in fasted state simulated intestinal fluid using amorphous compound; type: physicochemical
[4] = Oral bioavailability in Han Wistar rat assessed as (S)-Ethyl 6-Bromo-4-(1H-indazole-7-carboxamido)spiro-[chroman-2,4'-piperidine]-1'-carboxylate level at 4 mg/kg equiv of parent compound administered via gavage using amorphous compound by LC-MS/MS analysis; type: ADME, organism-based; settings: in vivo
[5] = Oral bioavailability in Han Wistar rat assessed as (S)-Ethyl 6-Bromo-4-(1H-indazole-7-carboxamido)spiro-[chroman-2,4'-piperidine]-1'-carboxylate level at 82 mg/kg equiv of parent compound administered via gavage using amorphous compound by LC-MS/MS analysis; type: ADME, organism-based; settings: in vivo
[6] = Oral bioavailability in Han Wistar rat assessed as (S)-Ethyl 6-Bromo-4-(1H-indazole-7-carboxamido)spiro-[chroman-2,4'-piperidine]-1'-carboxylate level at 25 mg/kg equiv of parent compound administered via gavage using amorphous compound by LC-MS/MS analysis; type: ADME, organism-based; settings: in vivo
[7] = biological target: T1, Indoleamine 2,3-dioxygenase 1; assay: Binding affinity to IDO1 holoenzyme (unknown origin) assessed as red shift in soret band at 10 uM measured after 2 hrs by UV-vis spectra analysis
Target sequence in this assay (P14902 whole entry, looked up): as the sequence (P14902 whole entry) above

[8] = Oral bioavailability in Beagle dog assessed as (S)-Ethyl 6-Bromo-4-(1H-indazole-7-carboxamido)spiro-[chroman-2,4'-piperidine]-1'-carboxylate level at 3 mg/kg equiv of parent compound administered via gavage using crystalline compound by LC-MS/MS analysis; type: ADME, organism-based, Canis lupus familiaris; settings: in vivo
Homo sapiens = assay: In vivo inhibition of IDO1 in human at 60 mg, po bid measured after 24 hrs relative to control; type: functional
[9] = Oral bioavailability in CD-1 mouse assessed as (S)-Ethyl 6-Bromo-4-(1H-indazole-7-carboxamido)spiro-[chroman-2,4'-piperidine]-1'-carboxylate level at 267 mg/kg equiv of parent compound administered via gavage using crystalline compound by LC-MS/MS analysis; type: ADME, organism-based; settings: in vivo
[10] = Oral bioavailability in Beagle dog assessed as (S)-Ethyl 6-Bromo-4-(1H-indazole-7-carboxamido)spiro-[chroman-2,4'-piperidine]-1'-carboxylate level at 30 mg/kg equiv of parent compound administered via gavage using crystalline compound by LC-MS/MS analysis; type: ADME, organism-based, Canis lupus familiaris; settings: in vivo
[11] = Oral bioavailability in CD-1 mouse assessed as (S)-Ethyl 6-Bromo-4-(1H-indazole-7-carboxamido)spiro-[chroman-2,4'-piperidine]-1'-carboxylate level at 3 mg/kg equiv of parent compound administered via gavage using crystalline compound by LC-MS/MS analysis; type: ADME, organism-based; settings: in vivo
[12] = Mutagenicity in Salmonella typhimurium in presence of S9 fraction by Ames test; settings: salmonella enterica subsp. enterica serovar typhimurium
[13] = Solubility of the compound in fasted state simulated intestinal fluid using crystalline compound; type: physicochemical
[14] = Oral bioavailability in Beagle dog assessed as (S)-Ethyl 6-Bromo-4-(1H-indazole-7-carboxamido)spiro-[chroman-2,4'-piperidine]-1'-carboxylate level at 89 mg/kg equiv of parent compound administered via gavage using crystalline compound by LC-MS/MS analysis; type: ADME, organism-based, Canis lupus familiaris; settings: in vivo
[15] = Oral bioavailability in CD-1 mouse assessed as (S)-Ethyl 6-Bromo-4-(1H-indazole-7-carboxamido)spiro-[chroman-2,4'-piperidine]-1'-carboxylate level at 89 mg/kg equiv of parent compound administered via gavage using crystalline compound by LC-MS/MS analysis; type: ADME, organism-based; settings: in vivo
[16] = AUC (0 to t) in Beagle dog assessed as (S)-Ethyl 6-Bromo-4-(1H-indazole-7-carboxamido)spiro-[chroman-2,4'-piperidine]-1'-carboxylate level at 30 mg/kg equiv of parent compound administered via oral gavage using crystalline compound by LC-MS/MS analysis; type: ADME, organism-based, Canis lupus familiaris; settings: in vivo
[17] = Mutagenicity in Salmonella typhimurium in absence of S9 fraction by Ames test; type: toxicity; settings: salmonella enterica subsp. enterica serovar typhimurium
[18] = Oral bioavailability in CD-1 mouse assessed as (S)-Ethyl 6-Bromo-4-(1H-indazole-7-carboxamido)spiro-[chroman-2,4'-piperidine]-1'-carboxylate level at 30 mg/kg equiv of parent compound administered via gavage using crystalline compound by LC-MS/MS analysis; type: ADME, organism-based; settings: in vivo
[19] = Clearance in mouse; type: ADME, organism-based; settings: in vivo
[20] = Clearance in rat relative to hepatic blood flow; type: ADME; settings: in vivo
[21] = AUC (0 to t) in Beagle dog at 30 mg/kg, po administered via gavage using crystalline compound by LC-MS/MS analysis; type: ADME, organism-based, Canis lupus familiaris; settings: in vivo
[22] = Clearance in rat; type: ADME; settings: in vivo
[23] = Clearance in monkey relative to hepatic blood flow; type: ADME, Macaca mulatta; settings: rhesus monkey, in vivo
[24] = Clearance in monkey; type: ADME, Macaca mulatta; settings: rhesus monkey, in vivo
[25] = Oral bioavailability in Han Wistar rat at 30 mg/kg administered via gavage using crystalline compound by LC-MS/MS analysis; type: ADME, organism-based; settings: in vivo
[26] = Clearance in mouse relative to hepatic blood flow; type: ADME; settings: in vivo
[27] = Oral bioavailability in Han Wistar rat at 100 mg/kg administered via gavage using crystalline compound by LC-MS/MS analysis; type: ADME, organism-based; settings: in vivo
[28] = Oral bioavailability in Beagle dog at 5 mg/kg administered via gavage using crystalline compound by LC-MS/MS analysis; type: ADME, organism-based, Canis lupus familiaris; settings: in vivo
[29] = Oral bioavailability in Han Wistar rat at 5 mg/kg administered via gavage using crystalline compound by LC-MS/MS analysis; type: ADME, organism-based; settings: in vivo
[30] = Oral bioavailability in Beagle dog at 30 mg/kg administered via gavage using crystalline compound by LC-MS/MS analysis; type: ADME, organism-based, Canis lupus familiaris; settings: in vivo

Compound: CCOC(=O)N1CCC2(CC1)CC(NC(=O)c1cccc3cn[nH]c13)c1ccccc1O2 (racemic)
- CC50 at 48 h [1]: > 10 µM

Compound: CCCOC(=O)N1CCC2(CC1)C[C@H](NC(=O)c1cccc3cn[nH]c13)c1cc(Br)ccc1O2
- CC50 at 48 h [1]: > 10 µM

Compound: CCOC(=O)N1CCC2(CC1)C[C@H](NC(=O)c1cccc3c1NC(=O)CO3)c1cc(Br)ccc1O2
- CC50 at 48 h [1]: > 10 µM

Compound: CCOC(=O)N1CCC2(CC1)C[C@H](NC(=O)c1cccc3cn[nH]c13)c1nc(OC)ccc1O2
- pIC50 [2]: 8.19
- CC50 at 48 h [1]: > 10 µM

Compound: CCOC(=O)N1CCC2(CC1)C[C@H](NC(=O)c1cccc3cn[nH]c13)c1cc(C(=O)OC)ccc1O2
- CC50 at 48 h [1]: > 10 µM

Compound: CCOC(=O)N1CCC2(CC1)C[C@H](NC(=O)c1cccc3ocnc13)c1cc(Br)ccc1O2
- CC50 at 48 h [1]: > 10 µM

Compound: CCOC(=O)N1CCC2(CC1)C[C@H](NC(=O)c1cccc3nc[nH]c13)c1cc(Br)ccc1O2
- CC50 at 48 h [1]: > 10 µM

Compound: CCOC(=O)N1CCC2(CC1)C[C@H](NC(=O)c1cccc3cn[nH]c13)c1ccccc1O2
- CC50 at 48 h [1]: > 10 µM

Compound: CCOC(=O)N1CCC2(CC1)C[C@H](NC(=O)c1cccc3[nH]ncc13)c1cc(Br)ccc1O2
- CC50 at 48 h [1]: > 10 µM

Compound: CCOC(=O)N1CCC2(CC1)C[C@H](NC(=O)c1cccc3[nH]c(=O)[nH]c13)c1cc(Br)ccc1O2
- CC50 at 48 h [1]: > 10 µM

Compound: CCOC(=O)N1CCC2(CC1)C[C@H](NC(=O)c1cccc3cn[nH]c13)c1cc(C#N)ccc1O2
- CC50 at 48 h [1]: > 10 µM

Compound: CCOC(=O)N1CCC2(CC1)C[C@H](NC(=O)c1cccc3c1NC(=O)C3)c1cc(Br)ccc1O2
- CC50 at 48 h [1]: > 10 µM

Compound: CC(C)(C)OC(=O)N1CCC2(CC1)C[C@H](NC(=O)c1cccc3cn[nH]c13)c1cc(Br)ccc1O2
- CC50 at 48 h [1]: > 10 µM

Compound: CCOC(=O)N1CCC2(CC1)C[C@H](NC(=O)c1cccc3c1OCO3)c1cc(Br)ccc1O2
- CC50 at 48 h [1]: > 10 µM

Compound: CC(C)OC(=O)N1CCC2(CC1)C[C@H](NC(=O)c1cccc3cn[nH]c13)c1cc(Br)ccc1O2
- CC50 at 48 h [1]: > 10 µM

Compound: CCOC(=O)N1CCC2(CC1)C[C@H](NC(=O)c1cccc3cn(COP(=O)(O)O)nc13)c1cc(Br)ccc1O2
- solubility [3]: > 1000 µg/mL
- F [4]: 65%
- F [5]: 91%
- F [6]: 95%

Compound: CCOC(=O)N1CCC2(CC1)C[C@H](NC(=O)c1ccccc1NC(=O)C(F)(F)F)c1cc(Br)ccc1O2
- CC50 at 48 h [1]: > 10 µM

Compound: CCOC(=O)N1CCC2(CC1)C[C@H](NC(=O)c1cccc3cn[nH]c13)c1cc(CC)ccc1O2
- CC50 at 48 h [1]: > 10 µM

Compound: CCOC(=O)N1CCC2(CC1)C[C@H](NC(=O)c1cccc3cc[nH]c13)c1cc(Br)ccc1O2
- CC50 at 48 h [1]: > 10 µM

Compound: CCOC(=O)N1CCC2(CC1)CC(NC(=O)c1cccc3cc[nH]c13)c1ccccc1O2 (racemic)
- CC50 at 48 h [1]: > 10 µM

Compound: CCOC(=O)N1CCC2(CC1)C[C@H](NC(=O)c1cccc3nn[nH]c13)c1cc(Br)ccc1O2
- CC50 at 48 h [1]: > 10 µM

Compound: NS(=O)(=O)NCCNc1nonc1/C(=N/O)Nc1ccc(F)c(Br)c1
- Activity [7]: inactive

Compound: CCOC(=O)N1CCC2(CC1)C[C@H](NC(=O)c1cccc3cn(COP(=O)(O)O)nc13)c1cc(Br)ccc1O2.NC(CO)(CO)CO.NC(CO)(CO)CO
- F [8]: 37%
- inhibition (INH) (Homo sapiens): 90%
- F [9]: 45%
- F [10]: 32%
- F [11]: 33%
- Activity [12]: Non-Toxic
- solubility thermodynamic [13]: > 1000 µg/mL
- F [14]: 21%
- F [15]: 31%
- AUCt [16]: 8606 ng·h/mL
- Activity [17]: Non-Toxic
- F [18]: 24%

Compound: CC(C)(C)OC(=O)N1CCC2(CC1)CC(NC(=O)c1cccc3cc[nH]c13)c1ccccc1O2 (racemic)
- clearance [19]: 55 mL/min/kg
- CC50 at 48 h [1]: 5.01 µM

Compound: CCOC(=O)N1CCC2(CC1)C[C@@H](NC(=O)c1cccc3cn[nH]c13)c1ccccc1O2
- CC50 at 48 h [1]: > 10 µM

Compound: CCOC(=O)N1CCC2(CC1)C[C@H](NC(=O)c1cccc3cn[nH]c13)c1cc(OC)ccc1O2
- CC50 at 48 h [1]: > 10 µM

Compound: COC(=O)N1CCC2(CC1)C[C@H](NC(=O)c1cccc3cn[nH]c13)c1cc(Br)ccc1O2
- pIC50 [2]: 8.37
- CC50 at 48 h [1]: 6.31 µM

Compound: CC(C)CN(CC(C)C)c1ccc([C@H](C)CC(=O)O)cc1Nc1nc(C(F)(F)F)ns1
- Activity [7]: inactive

Compound: CCOC(=O)N1CCC2(CC1)C[C@H](NC(=O)c1ccccc1OC)c1cc(Br)ccc1O2
- CC50 at 48 h [1]: > 10 µM

Compound: CCOC(=O)N1CCC2(CC1)C[C@H](NC(=O)c1cccc3cn[nH]c13)c1cc(Br)ncc1O2
- pIC50 [2]: 7.68
- CC50 at 48 h [1]: > 10 µM

Compound: CCOC(=O)N1CCC2(CC1)C[C@H](NC(=O)c1cccc3c1NC(=O)C3=O)c1cc(Br)ccc1O2
- CC50 at 48 h [1]: > 10 µM

Compound: CCOC(=O)N1CCC2(CC1)C[C@H](NC(=O)c1ccccc1O)c1cc(Br)ccc1O2
- CC50 at 48 h [1]: > 10 µM

Compound: CCOC(=O)N1CCC2(CC1)C[C@H](NC(=O)c1cccc3cn[nH]c13)c1cc(Br)ccc1O2
- CL [20]: 15%
- AUC(0-t) [21]: 44.7 ng·h/mL
- clearance [22]: 11.7 mL/min/kg
- CL [23]: 14%
- clearance [19]: 10 mL/min/kg
- clearance [24]: 6.1 mL/min/kg
- solubility thermodynamic [13]: 18.4 µg/mL (≈ 35.8 µM)
- CC50 at 48 h [1]: > 10 µM
- bioavailability [25]: 6%
- CL [26]: 8%
- bioavailability [27]: 3%
- bioavailability [28]: 7%
- bioavailability [29]: 11%
- bioavailability [30]: 0.2%

Compound: CCOC(=O)N1CCC2(CC1)C[C@H](NC(=O)c1cccc3cn[nH]c13)c1cc(C(=O)O)ccc1O2
- CC50 at 48 h [1]: > 10 µM
